Experimental data reported in PubChem BioAssay AID179 (DTP/NCI, 2004).
The source made the active and inactive calls.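 The calls were made as follows: active = compounds giving half or more protection of infected cells from virus-caused growth loss, again on retest; inactive = the rest.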

Tested on: CEM cells HIV-1 protection, formazan growth assay
Assay: NCI AIDS Antiviral Assay
Details: for IC50: measured here: growth of uninfected CEM cells
How it was run: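 Soluble formazan readout of cell growth; CEM cells ± HIV-1; 5 drug concs. ≥50% protection → retest; ≥50% again = moderately active; reproducible 100% = confirmed active.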

SMILES | outcome | EC50 [µM] | IC50 [µM]
CC(=O)NC1C(O)OC(CO)C(OC2OC(CO)C(O)C(O)C2NC(=O)NCCCCCCNC(=O)n2cc(F)c(=O)[nH]c2=O)C1O (centres undefined) | inactive | – | –
CC(C)C1=CC23CCC4C(C)(C(=O)O)CCCC4(C)C2CC1C1C(=O)N(c2ccccc2)C(=O)C13 (centres undefined) | – | > 52.5 | > 52.5
CC(C)(C)C1=CC(=C(c2ccccc2)c2ccccc2)C=C(C(C)(C)C)C1=O | – | > 47.9 | > 47.9
C=C1C[C@]2(C)c3ccccc3NC(=O)[C@H]12 | – | 162 | > 200
Cc1ccc(-n2nncc2[Si](C)(C)C)s1 | – | > 200 | 148
O=C1CC[C@@]23CC(=O)O[C@@H]2CCCC3C1 (some centres undefined) | inactive | – | –
CC(=O)NC1=C(C)C(=O)c2c(nc3n2CCC3O)C1=N (centres undefined) | – | > 200 | 24
O=C1c2ccccc2C(=O)N1CSS(=O)(=O)O | – | > 200 | > 200
NC(Cc1ccccc1)C(=O)N[C@H]1c2ccsc2/C(=N/O)[C@H]1O (some centres undefined) | – | > 200 | > 200
CC(=O)c1ccc2c(c1)CC1(C2)Cc2ccccc2C1=O (centres undefined) | – | > 200 | 74.1
CCCCCN(CCCCC)C(=O)COc1cc2c(O)c3c(O)c(C)c4c(c13)C(=O)C(C)(O/C=C/C(OC)C(C)C(OC(C)=O)C(C)C(O)C(C)C(O)C(C)/C=C/C=C(\C)C(=O)N2)O4 (centres undefined) | – | > 200 | 7.76
CCOC(=O)c1c(-c2cc(OC)c(OC)c(OC)c2)csc1NC(=O)c1ccccc1 | – | > 200 | 12.6
Cc1ncc(C(N)=O)c2c1OC(C)(C)OC2 | – | > 200 | > 200
COC(=O)C1=C(O)C(O)=C(C(=O)OC)C1 | – | 407 | 955
CCC(C)c1cccc(C)c1NC(=O)C(=O)Cc1nc2ccccc2s1 (centres undefined) | – | > 186 | > 186
O=C(/C(=C/c1ccc(O)cc1)c1ccccc1)c1ccccc1 | – | > 120 | 36.3
CSc1ccc(C(=O)C(=O)c2ccc(SC)s2)s1 | – | > 200 | 155
COC1=C(C(=O)OC(C)(C)C)C23CCCCC2(C(C(=O)OC(C)(C)C)=C(OC)C3C(=O)OC(C)(C)C)C1C(=O)OC(C)(C)C (centres undefined) | inactive | – | –
CC(C)N1CCN(C(C)C)CCN(C(C)C)CC1.[O]=[Mo](=[O])=[O] | – | > 100 | 75.9
COc1ccc2c(-c3ccc(OCCN(C)C)cc3)c(Oc3ccc(Cl)cc3)c(=O)oc2c1 | – | > 200 | 5.89
COc1cc(CCCC(O)COc2cccc3c2C2(O)CCCCCC32)cc(OC)c1 (centres undefined) | – | > 200 | 12.6
CCCO/N=[N+](\[O-])N(CC)CC | – | > 8910 | > 8910

SMILES | outcome | EC50 [µM] | IC50 [µM]
COc1ccc(Cc2cc(N=O)c(C)cc2O)cc1 | – | > 200 | 12.6
Nc1ccn(CCOC(=O)c2ccccc2)c(=O)n1 | – | > 52.5 | > 52.5
Cc1coc2c1[C@@H](O)[C@]1(C)[C@@H](C)CC[C@H](O)[C@]1(O)C2 | – | > 200 | > 200
Cc1cc(S(=O)(=O)NC2=NC(c3ccccc3)c3cc(Cl)ccc3N2)c(S)cc1Cl (centres undefined) | – | > 200 | > 200
CC1(C)O[C@@H](CP(c2cccc3ccccc23)c2cccc3ccccc23)[C@H](CP(c2cccc3ccccc23)c2cccc3ccccc23)O1 | – | > 200 | > 200
Cc1nc(N)c(N=O)c(=O)[nH]1 | – | > 200 | > 200
COc1ccc(NC(=O)C(C)Oc2ccc(OCC3CCCCC3)cc2)cc1 (centres undefined) | – | > 26.3 | > 26.3
CCOC(=O)C(/C=N/C(=S)Nc1ccc(S(=O)(=O)Nc2ccccn2)cc1)=C(/O)c1ccccc1 | – | > 200 | 135
CC(C(=O)Oc1ccc2ccccc2c1-c1c(O)ccc2ccccc12)c1ccccc1 (centres undefined) | – | > 2.51 | > 2.51
Cc1ccc(C(=O)O)c(CC2Cc3c(C)cccc3C2=O)c1 (centres undefined) | – | > 200 | 155
CCCCCC1CC2=C(C(=O)OC2=O)C(O)C(O)(CCCC)CC2=C1C(=O)OC2=O (centres undefined) | – | > 85.1 | > 85.1
O=C(c1ccccc1)C1C(c2ccccc2)S(=O)C(c2ccccc2)CC1(O)c1ccccc1 (centres undefined) | – | > 66.1 | 13.5
Cc1ccc(/C(C#N)=C/c2cccc([N+](=O)[O-])c2)cc1 | – | > 200 | > 200
CCCNC(=O)c1nc(SC)sc1NC(=O)c1ccc([N+](=O)[O-])cc1 | – | > 200 | 191
C(=C(c1ccccc1)c1ccccc1)=C(c1ccccc1)c1ccccc1 | – | > 28.8 | > 28.8
COC(=O)C(Cc1cccc(OC)c1)NC(=O)OC(C)(C)C (centres undefined) | inactive | – | –
Nc1ccc2c(c1)Oc1ccc(N)cc1O2 | – | > 200 | > 200
O=C(O)CN1CCN(CC(=O)O)CCN(CC(=O)O)CCN(CC(=O)O)CC1 | – | > 200 | > 200
COC(=O)C1=CC2C(=O)c3ccccc3C1(c1ccccc1)N2C1CCCCC1 (centres undefined) | – | > 200 | 21.4
COc1ccccc1NC(=S)N/N=C/c1cccc(C)n1 | – | > 200 | 2.75
CC1=Nc2ccccc2N=C(c2c(O)c3ccc4ccccc4c3oc2=O)C1 | – | > 200 | 49
C=CCOc1ccc(/C(N=Nc2ccc(Cl)cc2)=N/NC(=O)c2ccccc2)cc1OC | – | > 200 | 87.1

SMILES | outcome | EC50 [µM] | IC50 [µM]
CCc1cccc(C)c1NC(=O)CC(=O)NNC(N)=S | – | > 324 | > 324
C=CCC1(O)CC(n2cc(C)c(=O)[nH]c2=O)OC1CO[Si](C)(C)C(C)(C)C (centres undefined) | – | > 200 | 91.2
CC[C@@H]1CN2CCc3c([nH]c4ccccc34)[C@@H]2C[C@@H]1/C(=C\OC)C(=O)OC | – | > 64.6 | > 64.6
Cc1ccc(S(=O)(=O)OC(C=O)C(O)C(O)COC(c2ccccc2)(c2ccccc2)c2ccccc2)cc1 (centres undefined) | – | > 24.5 | > 24.5
COc1cccc(/C=C/C(=O)c2sc(C(N)=S)nc2C)c1O | – | > 11.2 | > 11.2
Cn1cc(-c2ccc3c4ccccc4n(C)c3c2)c2ccccc21 | – | > 8.71 | > 8.71
O=C1OC(C2Cc3cc4c(cc3C2=O)CCC4)c2ccccc21 (centres undefined) | – | > 200 | 33.9
O=C(Cn1c2ccc(Br)cc2c2nc3ccccc3nc21)NC1CCCCC1 | – | > 100 | > 100
CCOC(=O)c1c(C)cc(=O)n2c1[nH]c1ccccc12 | – | > 200 | 151
COc1ccc(/C(CC2OC(=O)c3ccccc32)=N\NC(=O)C[N+](C)(C)C)cc1 (centres undefined) | – | > 77.6 | 24
COC(=O)C(COC(C)=O)NC(=O)/C=C/c1ccc(O)c(OC(C)=O)c1 (centres undefined) | – | > 200 | 10
O=c1ccc2ccccc2n1Cc1ccc2ccccc2n1 | – | > 200 | 148
CC(=O)OC1CCC2(C)CC3C=CC2(OO3)C1(C)C (centres undefined) | – | > 200 | 10.7
Cn1cnc([N+](=O)[O-])c1SSc1c([N+](=O)[O-])ncn1C | – | > 200 | > 200
CCCc1cc(=O)oc2c3c(cc(OC)c12)O[C@H](C)[C@@H](C)[C@@H]3O | – | > 200 | –
Cc1ccc(S(=O)(=O)SC(SCC(=O)c2ccc(Br)cc2)C(=O)c2ccc(Br)cc2)cc1 (centres undefined) | – | > 40.7 | 38.9
COC(=O)c1c(CC(Cc2ccc3c(c2)CCCC3)C(=O)O)ccc2c1CCCC2 (centres undefined) | – | > 200 | 58.9
C=CCC1(C2=C(C)C(=O)c3ccccc32)CCCS1 (centres undefined) | – | > 200 | 31.6
COc1ccc(/C=C2\N=C(c3ccccc3)N(Nc3nnc(NN4C(=O)/C(=C/c5ccc(OC)cc5)N=C4c4ccccc4)c4ccccc34)C2=O)cc1 | inactive | – | –
CC(=O)Nc1nc(C#N)[nH]c1C#N | – | > 200 | > 200
O=C(/C=C/c1ccccc1)CCN1CCN(CCC(=O)/C=C/c2ccccc2)CC1 | – | > 200 | 1.51
CNC(=O)c1n[nH][nH]c1=O | – | > 200 | > 200

SMILES | outcome | EC50 [µM] | IC50 [µM]
COC(=O)/C=C1\C(CO)OC(n2ccc(=O)[nH]c2=O)C1O (centres undefined) | – | > 200 | > 200
NC(=Nc1c([N+](=O)[O-])cnc2ccccc12)N1CCOCC1 | – | > 200 | 126
COC(=O)c1sc(=O)n(-c2ccccc2)c1SCc1ccccc1 | – | > 38 | > 38
CCCCC1C(=O)N2C=C(c3ccccc3)c3ccccc3N2C1=O (centres undefined) | – | > 100 | 60.3
Cc1cc(C)nc(NS(=O)(=O)c2ccc(Nc3c4ccccc4nc4c(C(=O)Nc5ccc(S(=O)(=O)Nc6cc(C)on6)cc5)ccc(Cl)c34)cc2)n1 | – | > 46.8 | 41.7
CCC(/C=C/c1ccccc1)=N\N=C(\C=C\c1ccccc1)CC | – | > 41.7 | 2.51
O=C1CCCCCCCCCCC1CN1CCCCC1 (centres undefined) | inactive | – | –
O=C(NC(=Nc1ccccc1)SCCSC(=Nc1ccccc1)NC(=O)c1ccccc1)c1ccccc1 | – | > 18.6 | > 18.6
O=S1c2ccccc2N=C(c2ccc3ccccc3c2)CC1c1ccccc1 (centres undefined) | – | > 19.1 | > 19.1
Cc1ccc(/C=N/n2c(Cc3ccccc3)n[nH]c2=O)cc1 | – | > 200 | > 200
C=CCNC(=O)CN(CC(=O)OC)C1CCCCC1N(CC(=O)OC)CC(=O)OC (centres undefined) | – | > 200 | > 200
COc1ccc2nc3c([N+](=O)[O-])ccc4c3c(c2c1)N(CCCN(C)C)C(=S)N4CCCN(C)C | – | > 2 | 0.537
CC1C(=O)N=C2C(=CN(Cc3ccccc3)c3ccccc32)C(=O)N1C (centres undefined) | inactive | – | –
Nc1cc(Cl)ccc1N1C(=O)C=CC1=O | inactive | – | –
COc1ccccc1NC(=O)C1=C(C)NC(C)=C(C(=O)Nc2ccccc2OC)C1C1=CC=COC1 | – | > 14.8 | > 14.8
N=c1c2ncn3c(=O)n(-c4ccccc4)c(nc(=O)n1-c1ccccc1)c23 | – | > 14.5 | 8.32
CC(C)=CC(=O)C/C(=N\NC(N)=S)C(=O)Nc1ccc(Cl)cc1 | – | > 37.2 | > 37.2
COc1ccc2c(c1)C(=O)N1CCOC1C2C(=O)O (centres undefined) | – | > 955 | > 955
CC(C)=Cc1cc(C(=O)NCCNC(=O)c2cc(C=C(C)C)nc(NC#N)n2)nc(NC#N)n1 | – | > 5.89 | > 5.89
CC12C3C4C1C1C2C3C41CO (centres undefined) | – | > 200 | > 200
O=P(O)(OCC(O)O)OCC(O)O | inactive | – | –
